Key:
[1] = system: human breast cancer (MCF-7) cells; experiment: MTT cytotoxicity assay, MCF-7; format: cell-based; conditions: five doses 0.01-100 µM
Method: (§1) The cytotoxicity of the desired compounds was assessed through MTT assay against two human cancer cell lines, human breast cancer (MCF-7) and colon cancer (HCT116), and one normal cell line, human embryonic kidney 293T (HEK293T). CPT and etoposide (VP-16) were used as positive controls. The compounds were incubated with cells for 72 h in a five-dose assay ranging from 0.01 to 100 µΜ. After the drug treatments, MTT solution was added to test the percentage growth of tumor cells.
(§2) The cells were cultured on RPMI 1640 Medium at 37 °C in a humidified atmosphere with 5% CO2. The cytotoxicities of the target compounds were evaluated through MTT assay against two human cancer cell lines (human breast cancer MCF-7 and human colon cancer HCT116). For the compound treatment experiments, the cancer cells were treated with the compounds (pre-dissolved in DMSO) via a five-dose assay ranging from 10^−8 to 10^−4 M. After incubation for 72 h at 37 °C, MTT solution (20 μL, 2.5 mg/mL) in PBS (PBS without MTT as the blank) was added to each well of the culture plate. After incubation for 4 h, the formazan crystal formed in the well was dissolved in 100 μL of DMSO for an optical density of 570 nm. The IC50 value was calculated using nonlinear regression analysis (GraphPad Prism). Every experiment was conducted three times, independently.

[2] = system: human colon cancer (HCT116) cells; experiment: MTT cytotoxicity assay, HCT116; format: cell-based; conditions: five doses 0.01-100 µM
Method: as §1, §2

[3] = target: T1, calf thymus Top1 (Bos taurus, UniProt F1MN93); experiment: Top1-mediated DNA relaxation assay; format: biochemical; conditions: compounds at 50 µM; semi-quantitative, relative to CPT at 50 µM
T1 construct: 1 unit of calf thymus Top1; from tissue; host or cells: calf thymus
T1 sequence (F1MN93 1-767): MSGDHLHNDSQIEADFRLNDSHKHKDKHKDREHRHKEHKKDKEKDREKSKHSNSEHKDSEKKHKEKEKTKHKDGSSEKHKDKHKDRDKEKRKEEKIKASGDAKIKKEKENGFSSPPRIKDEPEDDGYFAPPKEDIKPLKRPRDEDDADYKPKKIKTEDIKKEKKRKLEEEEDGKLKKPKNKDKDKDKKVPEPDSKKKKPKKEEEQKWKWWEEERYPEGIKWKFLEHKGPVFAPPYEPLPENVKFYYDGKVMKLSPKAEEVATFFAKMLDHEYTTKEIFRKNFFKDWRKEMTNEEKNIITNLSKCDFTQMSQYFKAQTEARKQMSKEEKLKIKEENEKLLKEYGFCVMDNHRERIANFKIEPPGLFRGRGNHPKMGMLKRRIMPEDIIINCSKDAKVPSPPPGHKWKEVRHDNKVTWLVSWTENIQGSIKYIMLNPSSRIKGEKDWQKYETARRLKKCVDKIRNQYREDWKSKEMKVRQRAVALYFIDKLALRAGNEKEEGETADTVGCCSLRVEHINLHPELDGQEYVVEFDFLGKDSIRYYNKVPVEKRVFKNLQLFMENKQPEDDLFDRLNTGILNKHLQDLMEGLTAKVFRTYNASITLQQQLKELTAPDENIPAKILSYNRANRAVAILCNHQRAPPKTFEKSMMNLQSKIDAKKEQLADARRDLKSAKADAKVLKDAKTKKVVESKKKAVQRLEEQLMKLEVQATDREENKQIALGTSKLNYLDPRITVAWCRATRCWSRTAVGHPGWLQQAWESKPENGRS
Method: The synthesized compounds 6–37 were evaluated for Top1 inhibitory activity by measurement of the Top1-mediated DNA relaxation assay. The compounds were tested at 50 µΜ using CPT as positive control, and the results were semi-quantitatively expressed relative to CPT at 50 µΜ as follows: ++++, more than 80% activity; +++, between 40% and 79% activity; ++, between 10% and 39% activity; +, less than 10% activity. […] In phenyl A, the 4-position halogen (X) remarkably affected the inhibition against Top1. […] In phenyl B, the introduction of substituents at the 3-position was beneficial for the Top1 inhibition, and the derivatives presented good tolerance of the 3-substituents, since compounds 8 (++++) and 13 (+++) with electron-donating -Me or -OMe and also compound 19 (+++) with electron-withdrawing -Br had good inhibition against Top1. For substituents at the 4-position, the strong electron-withdrawing -CF3 (10, +++) and -F (15, +++) increased the Top1 inhibitory activity compared to compound 6 (R = H), while the weak electron-withdrawing -Cl (17, +) and the electron-donating -Me (9, +) and -OMe (14, +) decreased the activity, with the exception of tert-Bu (11, +++).
As previously mentioned, compound 8 had the best inhibition activity against Top1, and therefore was selected for further investigation. A semi-quantitative Top1-mediated relaxation assay of compound 8 was performed at concentrations of 0.2, 1, 5, 25 and 125 μM.
The compounds were tested for their Top1 inhibitory activity using a Top1-mediated relaxation assay. Briefly, the reaction mixture (20 μL) with 0.5 μg of supercoiled pBR322 DNA in relaxation buffer (10 mM Tris-HCl, pH 7.5, 50 mM KCl, 5 mM MgCl2, 15 μg/mL BSA, 40 μg/mL DTT) was incubated with 1 unit of calf thymus Top1 in the absence or in the presence of the compound for 30 min at 37 °C. Then, the reaction solution was added with 6 × loading buffer (4 μL) and was analyzed using a 0.8% agarose gel in TBE buffer at 4.6 V/cm for 1.5 h. Gel was stained with 1 × GelRed for 30 min and subsequently visualized with a UV transilluminator.

## CC(C)=CCOc1cccc(/C=C/c2nc(-c3ccc(Br)cc3)cs2)c1 [Compound 36, (E)-4-(4-bromophenyl)-2-(3-((3-methylbut-2-en-1-yl)oxy)styryl)thiazole]
[1]; Homo sapiens, MCF7, 72 h
  IC50: > 100 µM
[2]; Homo sapiens, HCT-116, 72 h
  IC50: > 100 µM
other
  melting point: 122 to 123 °C

## Fc1ccc(-c2csc(/C=C/c3cccc(Br)c3)n2)cc1 [Compound 19, (E)-2-(3-bromostyryl)-4-(4-fluorophenyl)thiazole]
[1]; Homo sapiens, MCF7, 72 h
  IC50: 11.5 ± 1.74 µM
[2]; Homo sapiens, HCT-116, 72 h
  IC50: 6.95 ± 0.33 µM
other
  melting point: 142 to 144 °C

## COc1cc([C@@H]2c3cc4c(cc3[C@@H](O[C@@H]3O[C@@H]5CO[C@@H](C)O[C@H]5[C@H](O)[C@H]3O)[C@H]3COC(=O)[C@H]23)OCO4)cc(OC)c1O [vp-16, etoposide, reference compound]
[1]; Homo sapiens, MCF7, 72 h
  IC50: 24.7 ± 3.12 µM
[2]; Homo sapiens, HCT-116, 72 h
  IC50: 18.9 ± 1.35 µM

## Fc1ccc(-c2csc(/C=C/c3ccccc3Cl)n2)cc1 [Compound 16, (E)-2-(2-chlorostyryl)-4-(4-fluorophenyl)thiazole]
[1]; Homo sapiens, MCF7, 72 h
  IC50: 15.2 ± 1.18 µM
[2]; Homo sapiens, HCT-116, 72 h
  IC50: 8.42 ± 1.1 µM
other
  melting point: 97 to 98 °C

## FC(F)(F)c1ccc(/C=C/c2nc(-c3ccc(Br)cc3)cs2)cc1 [Compound 27, (E)-4-(4-bromophenyl)-2-(4-(trifluoromethyl)styryl)thiazole]
[1]; Homo sapiens, MCF7, 72 h
  IC50: 24.3 ± 5.62 µM
[2]; Homo sapiens, HCT-116, 72 h
  IC50: 34.9 ± 5.66 µM
other
  melting point: 102 to 103 °C

## Cc1cccc(/C=C/c2nc(-c3ccc(Cl)cc3)cs2)c1 [Compound 22, (E)-4-(4-chlorophenyl)-2-(3-methylstyryl)thiazole]
[1]; Homo sapiens, MCF7, 72 h
  IC50: > 100 µM
[2]; Homo sapiens, HCT-116, 72 h
  IC50: > 100 µM
other
  melting point: 133 to 134 °C

## Cc1cccc(/C=C/c2nc(-c3ccc(Br)cc3)cs2)c1 [Compound 26, (E)-4-(4-bromophenyl)-2-(3-methylstyryl)thiazole]
[1]; Homo sapiens, MCF7, 72 h
  IC50: 10.8 ± 2.42 µM
other
  melting point: 174 to 176 °C

## COc1ccc(/C=C/c2nc(-c3ccc(Br)cc3)cs2)cc1 [Compound 32, (E)-4-(4-bromophenyl)-2-(4-methoxystyryl)thiazole]
[1]; Homo sapiens, MCF7, 72 h
  IC50: > 100 µM
[2]; Homo sapiens, HCT-116, 72 h
  IC50: > 100 µM
other
  melting point: 189 to 191 °C
[3]
  Relaxation Assay (Top1 inhibitory activity): + (less than 10% activity)

## Oc1ccccc1/C=C/c1nc(-c2ccc(Br)cc2)cs1 [Compound 33, (E)-2-(2-(4-(4-bromophenyl)thiazol-2-yl)vinyl)phenol]
[1]; Homo sapiens, MCF7, 72 h
  IC50: 39.2 ± 1.79 µM
[2]; 72 h
  IC50: 4.15 ± 0.76 µM
[2]; Homo sapiens, HCT-116, 72 h
  IC50: < 5 µM
other
  melting point: 226 to 228 °C
[3]
  Relaxation Assay (Top1 inhibitory activity): + (less than 10% activity)

## CC(C)(C)c1ccc(/C=C/c2nc(-c3ccc(Br)cc3)cs2)cc1 [Compound 28, (E)-4-(4-bromophenyl)-2-(4-(tert-butyl)styryl)thiazole]
other
  melting point: 89 to 90 °C
[3]
  Relaxation Assay (Top1 inhibitory activity): + (less than 10% activity)

## Fc1ccc(-c2csc(/C=C/c3ccc(Cl)cc3Cl)n2)cc1 [Compound 20, (E)-2-(2,4-Dichlorostyryl)-4-(4-fluorophenyl)thiazole]
[1]; Homo sapiens, MCF7, 72 h
  IC50: 72.4 ± 2.15 µM
[2]; Homo sapiens, HCT-116, 72 h
  IC50: 54.8 ± 0.73 µM
other
  melting point: 131 to 133 °C
[3]
  Relaxation Assay (Top1 inhibitory activity): + (less than 10% activity)

## Fc1ccc(/C=C/c2nc(-c3ccc(F)cc3)cs2)cc1 [Compound 15, (E)-2-(4-fluorostyryl)-4-(4-fluorophenyl)thiazole]
[2]; Homo sapiens, HCT-116, 72 h
  IC50: 10.2 ± 1.07 µM
other
  melting point: 147 to 149 °C

## Fc1ccc(-c2csc(/C=C/c3ccccc3Br)n2)cc1 [Compound 18, (E)-2-(2-bromostyryl)-4-(4-fluorophenyl)thiazole]
[1]; Homo sapiens, MCF7, 72 h
  IC50: 20 ± 2.07 µM
[2]; Homo sapiens, HCT-116, 72 h
  IC50: 12.3 ± 1.1 µM
other
  melting point: 94 to 95 °C

## Oc1ccc(/C=C/c2nc(-c3ccc(Br)cc3)cs2)cc1 [Compound 35, (E)-4-(2-(4-(4-bromophenyl)thiazol-2-yl)vinyl)phenol]
[1]; Homo sapiens, MCF7, 72 h
  IC50: 38 ± 5.82 µM
[2]; 72 h
  IC50: 2.86 ± 0.46 µM
[2]; Homo sapiens, HCT-116, 72 h
  IC50: < 5 µM
other
  melting point: 204 to 205 °C
[3]
  Relaxation Assay (Top1 inhibitory activity): + (less than 10% activity)

## Fc1ccc(-c2csc(/C=C/c3ccc(Cl)cc3)n2)cc1 [Compound 17, (E)-2-(4-chlorostyryl)-4-(4-fluorophenyl)thiazole]
[1]; Homo sapiens, MCF7, 72 h
  IC50: 43.3 ± 1.42 µM
[2]; Homo sapiens, HCT-116, 72 h
  IC50: 27.1 ± 0.41 µM
other
  melting point: 171 to 173 °C
[3]
  Relaxation Assay (Top1 inhibitory activity): + (less than 10% activity)

## COc1ccccc1/C=C/c1nc(-c2ccc(F)cc2)cs1 [Compound 12, (E)-2-(2-methoxystyryl)-4-(4-fluorophenyl)thiazole]
[1]; Homo sapiens, MCF7, 72 h
  IC50: 49.5 ± 9.08 µM
[2]; Homo sapiens, HCT-116, 72 h
  IC50: 17.8 ± 1.16 µM
other
  melting point: 73 to 74 °C

## COc1cccc(/C=C/c2nc(-c3ccc(F)cc3)cs2)c1 [Compound 13, (E)-2-(3-methoxystyryl)-4-(4-fluorophenyl)thiazole]
[1]; 72 h
  IC50: 9.85 ± 0.47 µM
[1]; Homo sapiens, MCF7, 72 h
  IC50: < 10 µM
[2]; 72 h
  IC50: 4.99 ± 0.8 µM
[2]; Homo sapiens, HCT-116, 72 h
  IC50: < 5 µM
other
  melting point: 115 to 116 °C

## Oc1cccc(/C=C/c2nc(-c3ccc(Br)cc3)cs2)c1 [Compound 34, (E)-3-(2-(4-(4-bromophenyl)thiazol-2-yl)vinyl)phenol]
[1]; Homo sapiens, MCF7, 72 h
  IC50: 22.8 ± 1.4 µM
[2]; Homo sapiens, HCT-116, 72 h
  IC50: 9.99 ± 0.19 µM
[3]
  Relaxation Assay (Top1 inhibitory activity): + (less than 10% activity)

## Fc1ccc(-c2csc(/C=C/c3ccc(C(F)(F)F)cc3)n2)cc1 [Compound 10, (E)-2-(4-(trifluoromethyl)styryl)-4-(4-fluorophenyl)thiazole]
[1]; Homo sapiens, MCF7, 72 h
  IC50: 17.3 ± 1.62 µM
[2]; Homo sapiens, HCT-116, 72 h
  IC50: 22.6 ± 2.41 µM
other
  melting point: 111 to 113 °C

## Fc1ccc(/C=C/c2nc(-c3ccc(Br)cc3)cs2)cc1 [Compound 29, (E)-4-(4-bromophenyl)-2-(4-fluorostyryl)thiazole]
[1]; Homo sapiens, MCF7, 72 h
  IC50: > 100 µM
[2]; Homo sapiens, HCT-116, 72 h
  IC50: 63.2 ± 6.17 µM
other
  melting point: 176 to 178 °C

## Fc1ccc(-c2csc(/C=C/c3ccccc3)n2)cc1 [Compound 6, (E)-4-(4-fluorophenyl)-2-styrylthiazole]
[1]; Homo sapiens, MCF7, 72 h
  IC50: 22.2 ± 5.01 µM
[2]; Homo sapiens, HCT-116, 72 h
  IC50: 5.78 ± 1.89 µM
other
  melting point: 129 to 130 °C

## Cc1ccccc1/C=C/c1nc(-c2ccc(F)cc2)cs1 [Compound 7, (E)-2-(2-methylstyryl)-4-(4-fluorophenyl)thiazole]
[1]; Homo sapiens, MCF7, 72 h
  IC50: 31.4 ± 4.21 µM
[2]; Homo sapiens, HCT-116, 72 h
  IC50: 6.47 ± 0.62 µM
other
  melting point: 74 to 75 °C

## COc1ccccc1/C=C/c1nc(-c2ccc(Cl)cc2)cs1 [Compound 24, (E)-4-(4-chlorophenyl)-2-(2-methoxystyryl)thiazole]
[1]; Homo sapiens, MCF7, 72 h
  IC50: > 100 µM
[2]; Homo sapiens, HCT-116, 72 h
  IC50: 49.4 ± 3.49 µM
other
  melting point: 93 to 95 °C
